Our source for the EC50 values is article PMC3205184, “Competitive binding at a nicotinic receptor transmembrane site of two α7-selective positive allosteric modulators with differing effects on agonist-evoked desensitization” (Neuropharmacology, 2011).

The EC50 is the concentration that produces a half-maximal response.

Molecules are shown by their SMILES.

The target of the assay is T1, α7 nicotinic acetylcholine receptor (α7 nAChR) (Rattus norvegicus, UniProt Q05941).
T1 construct: gene Chrna7
T1 sequence (Q05941 23-502): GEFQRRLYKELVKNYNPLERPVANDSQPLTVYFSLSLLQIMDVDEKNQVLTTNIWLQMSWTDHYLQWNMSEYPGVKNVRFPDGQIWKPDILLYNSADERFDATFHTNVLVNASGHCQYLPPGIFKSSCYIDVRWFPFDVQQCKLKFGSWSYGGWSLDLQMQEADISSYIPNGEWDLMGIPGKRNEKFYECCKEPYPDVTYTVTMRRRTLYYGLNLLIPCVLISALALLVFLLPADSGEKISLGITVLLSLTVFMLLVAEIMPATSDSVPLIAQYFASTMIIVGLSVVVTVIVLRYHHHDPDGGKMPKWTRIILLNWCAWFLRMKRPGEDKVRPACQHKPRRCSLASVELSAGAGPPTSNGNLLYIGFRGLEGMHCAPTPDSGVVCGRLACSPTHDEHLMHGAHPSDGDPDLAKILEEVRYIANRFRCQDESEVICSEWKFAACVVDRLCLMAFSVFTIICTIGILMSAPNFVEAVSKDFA
In words: two-electrode voltage clamp in Xenopus oocytes; potentiation of EC20 acetylcholine responses, with site-directed mutants. Type of assay: cell-based.

In the case of `O=C(Nc1cc(Cl)ccc1O)Nc1cc(C(F)(F)F)ccc1Cl` [NS1738], the EC50 was found to be 6.7 ± 1.8 µM.
